Measurements: publication PMC10795512 (Cell reports. Physical science, 2023)
Where no end group is shown, it is not given here.

Experiments:
human erythrocytes = conditions: at a concentration of 10^−4 mol L^−1; cited from earlier work
P. aeruginosa PAO1 [1] = experiment: MIC, broth microdilution; assay type: cell-based, Pseudomonas aeruginosa; conditions: LB broth, 5 × 10^5 CFU mL^−1, 24 h at 37°C, OD 600 nm, three replicates
mouse erythrocytes = conditions: at a concentration of 10^−4 mol L^−1; cited from earlier work
P. aeruginosa PAO1 [2] = experiment: Synergy; assay type: cell-based, Pseudomonas aeruginosa; conditions: checkerboard; for FICI, combined with PMB: 2- to 0.03-fold MIC, 24 h at 37°C, three replicates; for FICI, WT1 and WT2 in combination: different concentrations
E. coli ATCC 11775 = experiment: MIC, broth microdilution; assay type: cell-based, Escherichia coli; conditions: LB broth, 5 × 10^5 CFU mL^−1, 24 h at 37°C, OD 600 nm, three replicates
P. aeruginosa PA14 = experiment: MIC, broth microdilution; assay type: cell-based, Pseudomonas aeruginosa; conditions: LB broth, 5 × 10^5 CFU mL^−1, 24 h at 37°C, OD 600 nm, three replicates
S. aureus ATCC 12600 = experiment: MIC, broth microdilution; assay type: cell-based, Staphylococcus aureus; conditions: LB broth, 5 × 10^5 CFU mL^−1, 24 h at 37°C, OD 600 nm, three replicates
[3] = test system: human embryonic kidney (HEK) cells (ATCC HEK293T); experiment: Cytotoxicity, XTT assay; assay type: cell-based
[4] = test system: primary human keratinocytes; experiment: Cytotoxicity, XTT assay; assay type: cell-based; conditions: for toxicity: at the highest concentration tested, 64 μmol L^−1, 24 h
[5] = test system: E. coli JW2703 (hypermutant strain) ΔmutS::kan; experiment: Resistance development assay; assay type: cell-based, Escherichia coli; conditions: over the same period (20 days)

LKLMGIVKKVLGAL-NH2 [WT1, reference compound]
hemolytic activity (human erythrocytes): hemolytic activity | MIC (P. aeruginosa PAO1 [1]): 32 µM | hemolytic activity (mouse erythrocytes): hemolytic activity | FICI, combined with PMB (P. aeruginosa PAO1 [2]): 0.7 | FICI, WT1 and WT2 in combination (P. aeruginosa PAO1 [2]): 0.7 | MIC (E. coli ATCC 11775): 8 µM | MIC (P. aeruginosa PA14): 32 µM | MIC (S. aureus ATCC 12600): 16 µM

LKLLGIVKKVLGAI-NH2 [WT2, reference compound]
hemolytic activity (human erythrocytes): hemolytic activity | MIC (P. aeruginosa PAO1 [1]): 32 µM | hemolytic activity (mouse erythrocytes): hemolytic activity | FICI, combined with PMB (P. aeruginosa PAO1 [2]): 0.5 | FICI, WT1 and WT2 in combination (P. aeruginosa PAO1 [2]): 0.7 | MIC (E. coli ATCC 11775): 16 µM | MIC (P. aeruginosa PA14): 64 µM | MIC (S. aureus ATCC 12600): 32 µM

LKLAGIVKKVLGAL-NH2 [A4–1]
MIC (E. coli ATCC 11775): 4 µM | MIC (S. aureus ATCC 12600): 8 µM

LKLMAIVKKVLGAL-NH2 [A5–1]
MIC (E. coli ATCC 11775): 4 µM | MIC (S. aureus ATCC 12600): 4 µM

LKLLAIVKKVLGAI-NH2 [A5–2]
MIC (E. coli ATCC 11775): 4 µM | MIC (S. aureus ATCC 12600): 4 µM

LKLLGIVKKKLGAI-NH2 [K10–2]
toxicity ([3]; at 16 μmol L^−1, 24 h): no toxicity | cell viability remaining ([4]; at 8 μmol L^−1, 24 h): 92% | MIC (P. aeruginosa PAO1 [1]): 4 µM | MIC (E. coli ATCC 11775): 4 µM | MIC (P. aeruginosa PA14): 8 µM | MIC (S. aureus ATCC 12600): 8 µM

LKLLGIVKKVLGKI-NH2 [K13–2]
toxicity ([3]; any of the concentrations tested (1 to 64 μmol L^−1), 24 h): no toxicity | toxicity [4]: low toxicity | MIC (P. aeruginosa PAO1 [1]): 4 µM | MIC (E. coli ATCC 11775): 4 µM | MIC (P. aeruginosa PA14): 16 µM

LKLMGIVKKVLAAL-NH2 [A12–1]
MIC (E. coli ATCC 11775): 2 µM | MIC (S. aureus ATCC 12600): 2 µM

LKLLGIVKKVLAAI-NH2 [A12–2]
MIC (E. coli ATCC 11775): 4 µM | MIC (S. aureus ATCC 12600): 2 µM

AKLMGIVKKVLGAL-NH2 [A1–1]
MIC (P. aeruginosa PAO1 [1]): 16 µM | MIC (E. coli ATCC 11775): 4 µM | MIC (P. aeruginosa PA14): 16 µM | MIC (S. aureus ATCC 12600): 8 µM

polymyxin B [PMB]
change of MIC during resistance assay [5]: did not vary significantly

LKLMGIVKKVLGKL-NH2 [K13–1]
toxicity ([3]; at 4-fold MIC, 24 h): toxic | toxicity [4]: low toxicity | MIC (P. aeruginosa PAO1 [1]): 8 µM | FICI, combined with PMB (P. aeruginosa PAO1 [2]): 0.6 | MIC (E. coli ATCC 11775): 4 µM | MIC (P. aeruginosa PA14): 16 µM | MIC (S. aureus ATCC 12600): 128 µM
